Laboratory results taken from patent publication US20110301199A1, “COMPOSITIONS AND METHODS FOR TREATING MYELODYSPLASTIC SYNDROME” (Telik, Inc., priority 2010, published 2011).

How the values were obtained:
[1] = tested on: Low to Intermediate-1 Risk Myelodysplastic Syndrome; test: Clinical study of ezatiostat hydrochloride tablets in MDS patients: adverse events (safety); format: in vivo, human
Method: Eighty-seven patients were randomized and treated at 23 investigational sites. After initial dose ranging in 14 patients, two dose levels were selected for further study. Subsequently, 37 patients were treated at 3 grams daily for two weeks followed by a one week rest period, and 36 patients were treated at 2 grams daily for three weeks followed by a one week rest period. The data on these 73 patients was pooled for this preliminary analysis.
The safety data is based on all patients treated.

[2] = tested on: Low to Intermediate-1 Risk Myelodysplastic Syndrome; test: Clinical study of ezatiostat hydrochloride tablets in IPSS low to intermediate-1 risk MDS patients: hematologic improvement and efficacy; format: in vivo, human; details: for significant RBC transfusion reduction: five of 11 patients; for HI-E Response Rate (95% Confidence Interval): prior DMTI Yes, N 15
Method: Subsequently, 37 patients were treated at 3 grams daily for two weeks followed by a one week rest period, and 36 patients were treated at 2 grams daily for three weeks followed by a one week rest period.
The median age was 72 years, with a patient population distribution of IPSS low risk (23 patients, 32%) and intermediate-1 risk (50 patients, 68%).

[3] = 1 g b.i.d. 3 weeks on & 1 week off (N = 31)
[4] = 1 g b.i.d. 3 weeks on & 1 week off, 6 responders
[5] = 1.5 g b.i.d. 2 weeks on & 1 week off (N = 29)
[6] = 1.5 g b.i.d. 2 weeks on & 1 week off, 7 responders

Q: `CCOC(=O)[C@@H](N)CCC(=O)N[C@@H](CSCc1ccccc1)C(=O)N[C@@H](C(=O)OCC)c1ccccc1` [Telintra, ethyl (2S)-2-amino-5-[[(2R)-3-benzylsulfanyl-1-[[(1R)-2-ethoxy-2-oxo-1-phenylethyl]amino]-1-oxopropan-2-yl]amino]-5-oxopentanoate] was tested. Which “diarrhea, Grade 1 adverse event” value ([1]; all patients treated) did it give?
A: 25%

Q: And the “diarrhea, Grade 2 adverse event” value ([1]; all patients treated)?
A: 7%

Q: And the “diarrhea, Grade 3 adverse event” value ([1]; all patients treated)?
A: 3%

Q: What about the “nausea, Grade 1 adverse event” value ([1]; all patients treated) of the same molecule?
A: 45%

Q: And the “nausea, Grade 2 adverse event” value ([1]; all patients treated)?
A: 16%

Q: And the “nausea, Grade 3 adverse event” value ([1]; all patients treated)?
A: 1%

Q: And the “vomiting, Grade 1 adverse event” value ([1]; all patients treated)?
A: 30%

Q: What about the “vomiting, Grade 2 adverse event” value ([1]; all patients treated) of the same molecule?
A: 12%

Q: What about the “vomiting, Grade 3 adverse event” value ([1]; all patients treated) of the same molecule?
A: 2%

Q: And the “incidence of GI AEs with prior DMTI treatment” value ([1]; patients with prior DMTI treatment)?
A: increased incidence

Q: What about the “Duration of HI-E Response, Median (95% CI)” value ([2]; 1 g b.i.d. 3 weeks on & 1 week off) of the same molecule?
A: 46.1 (10.0-46.1) Weeks

Q: And the “Time to HI-E Response, Max” value [2, 3]?
A: 11.3 Weeks

Q: What about the “Time to HI-E Response, Mean” value [2, 3] of the same molecule?
A: 8.9 (1.29) ^ Weeks

Q: And the “Time to HI-E Response, Min” value [2, 3]?
A: 8.0 Weeks

Q: And the “Duration of HI-E Response, # Censored” value [2, 4]?
A: 4 (66.7%)

Q: What about the “Duration of HI-E Response, # Event” value [2, 4] of the same molecule?
A: 2 (33.3%)

Q: And the “Duration of HI-E Response, Median (95% CI)” value ([2]; 1.5 g b.i.d. 2 weeks on & 1 week off)?
A: 18.4 (3.1-51.0) Weeks

Q: What about the “Time to HI-E Response, Max” value [2, 5] of the same molecule?
A: 10.0 Weeks

Q: And the “Time to HI-E Response, Mean” value [2, 5]?
A: 8.4 (0.72) ^ Weeks

Q: And the “Time to HI-E Response, Min” value [2, 5]?
A: 8.0 Weeks

Q: What about the “Duration of HI-E Response, # Censored” value [2, 6] of the same molecule?
A: 2 (28.6%)

Q: What about the “Duration of HI-E Response, # Event” value [2, 6] of the same molecule?
A: 5 (71.4%)

Q: And the RBC transfusion independence ([2]; 4 of 38 RBC transfusion-dependent patients)?
A: 11%

Q: And the “clinically significant RBC transfusion reductions (reduction of 4 U/8 weeks, IWG 2006)” value ([2]; 11 of 38 RBC transfusion-dependent patients)?
A: 29%

Q: And the “effect of prior Revlimid treatment on HI-E response” value ([2]; logistic regression analysis)?
A: enhance

Q: What about the “decrease in the odds for a HI-E response predicted by prior DMTI treatment” value ([2]; logistic regression analysis, p=0.023) of the same molecule?
A: five-fold

Q: And the “significant RBC transfusion reduction” value ([2]; no prior Revlimid, no prior DMTI)?
A: 45%

Q: What about the “complete remission continued following discontinuation of therapy” value ([2]; one patient) of the same molecule?
A: more than 12 months

Q: And the “HI-E Response Rate (95% Confidence Interval)” value ([2]; prior Revlimid No)?
A: 0.0% (0.0%-21.8%)

Q: And the “HI-E Response Rate (95% Confidence Interval)” value ([2]; prior Revlimid Yes, listed as ezatiostat hydrochloride)?
A: about 20%

Q: And the “significant RBC transfusion reduction” value ([2]; prior Revlimid, no prior DMTI)?
A: 45%

Q: What about the transfusion independence ([2]; prior Revlimid, no prior DMTI, three of 11 patients) of the same molecule?
A: 27%
